Assays:
Assay type in all cases: in vivo
CTX-I = experiment: Urinary CTX-I in dogs subjected to partial medial meniscectomy; conditions: dog, 30 µmol/kg
Procedure: (§1) Dogs subjected to partial medial meniscectomy received either 30 µmol/kg MIV-711 (synthesized by Medivir and given as a suspension in 1% Methocel A4C; n = 15) or vehicle (1% Methocel A4C; n = 15) by orogastric gavage once daily in the morning. […] Dosing started the day before surgery and lasted through Day 28, the day before necropsy. Each dog was fasted for at least 12 h before dosing and food were returned approximately 4 h following test article administration.
Urine samples were collected from the animals 1 to 3 days before surgery and treatment (baseline sample), 4 to 7 days after the start of treatment (Day 7 sample) and 26 to 28 days after treatment (Day 28 sample). Dogs were housed in metabolic cages overnight during urine collection. […]
In rabbits, conventional CTX-I assays to assess bone resorption cannot be used due to species differences. Instead, urinary helical peptide (HP-1) concentrations were measured in rabbits using the MicroVue Helical Peptide kit (Ref: 8022) from Quidel (San Diego, CA) according to the instructions supplied by the manufacturer. In dogs, urinary levels of C-terminal telopeptide of collagen type I (CTX-I) were measured using a commercially available kit (Urine BETA CrossLaps ELISA, Ref: AC-05F1, IDS Nordic Bioscience Diagnostics A/S). […] In dogs, CTX-II levels were also measured in synovial fluid. […]

[1] = test system: dogs subjected to partial medial meniscectomy; experiment: Dog partial medial meniscectomy study, gross macroscopic scoring; conditions: MIV-711 30 µmol/kg
Excerpt: The study design and animal usage were reviewed and approved by the IACUC at Preclinical Research Services (PCRS; Fort Collins, CO) for compliance with regulations before study initiation (IACUC Number 1021). Animal welfare, housing and research procedures for this study complied with the U.S. Department of Agriculture’s (USDA) Animal Welfare Act (9 CFR Parts 1, 2, and 3), the Guide for the Care and Use of Laboratory Animals, and PCRS Standard of Procedures. Thirty adult naïve female beagle dogs, with a weight of 7.5–11.3 kg and an age of approximately 6–8 months at study initiation, were used for this study. The dogs were acclimated for at least 7 days before study initiation.
At least 12 h before surgery, a fentanyl transdermal 2.5 mg patch was placed on the skin on the ventral aspect of the tail of each dog and secured into place with tape. The fentanyl patch delivered approximately 25 μg/h of analgesia for a total duration of 72–80 h. Dogs were also pre-medicated before surgery with glycopyrrolate (0.005–0.02 mg/kg), acepromazine (0.01–0.05 mg/kg) and morphine (0.5–1.0 mg/kg) injected subcutaneously. General anesthesia was induced using propofol (2–6 mg/kg) given intravenously; each dog was then intubated and maintained on isoflurane in oxygen (0.5–5%) administered to effect. The hair over the surgical site was clipped, and a preliminary aseptic prep of the area was done by alternating scrubs of chlorhexidine surgical scrub and sterile dry gauze sponges. A local anesthetic line block of lidocaine and bupivacaine (1.5 mg each) diluted in saline was administered at the incision site to provide local pre-emptive anesthesia. The limb was draped with a sterile fenestrated surgical drape. A small 2 cm medial parapatellar skin incision and a subsartorius capsular approach were made to expose the meniscus. For removal of the anterior one-half of the medial meniscus, the cranial meniscotibial ligament was incised, and the capsular attachments to the cranial pole of the meniscus were separated sharply with a scalpel under direct vision, sparing injury to the articular cartilage or the ACL. The medial meniscus was reflected medially with a hemostat. […] Animals were monitored closely throughout the recovery and post-operative period. […]
All animals were humanely euthanized on Day 29 to collect specimens for pathology. […] At study termination, the left (operated) knee was opened, disarticulated and the lesions on the medial tibia and femur measured, described and photographed. […] Lesions were classified as more severe or less severe depending on the intensity of India ink staining or perception of depth and areas for each calculated. Gross cartilage lesions were measured (length × width) and described as superficial, moderate, or deep. […]

[2] = test system: dogs subjected to partial medial meniscectomy; experiment: Dog partial medial meniscectomy study, tibial cartilage lesion area by imaging analysis of photographs; conditions: 30 µmol/kg
Procedure: as §1
All animals were humanely euthanized on Day 29 to collect specimens for pathology. Following sedation with acepromazine, euthanasia was performed via injection of a pentobarbital-based euthanasia solution (≥ 88 mg/kg pentobarbital). At study termination, the left (operated) knee was opened, disarticulated and the lesions on the medial tibia and femur measured, described and photographed. The observers were blinded to the treatment. Photographs were used (with or without India Ink lesion enhancement) to determine % area of lesions on each medial tibial plateau. Lesions were classified as more severe or less severe depending on the intensity of India ink staining or perception of depth and areas for each calculated. Gross cartilage lesions were measured (length × width) and described as superficial, moderate, or deep. Gross subjective cartilage degeneration scores were assigned for the medial and lateral tibial and femoral compartments as follows based on lesion measurements (see above): 0: normal, 1: superficial degeneration up to 10 mm^2, 2: superficial degeneration greater than 10 mm^2, 3: moderate depth degeneration up to 15 mm^2, 4: moderate depth degeneration greater than 15 mm^2. Subjective scores for the various regions were then used to generate an overall index of subjective cartilage degeneration for each region for each animal. Actual measurements of cartilage lesions were used to derive a calculated set of data points based on length × width × depth score (with depth score of 1 = superficial, 2 = medium, and 3 = deep, based on gross description). Percent of more or less severe tibial lesion area was determined from photographs taken at necropsy.

C#C[C@@H]1CN(C(=O)[C@H](CC(C)C)NC(=O)c2ccc(-c3nc(N4CCN(C)CC4)sc3F)cc2)[C@@H]2C(=O)CO[C@H]12 [MIV-711]
urinary CTX-I levels reduced by (CTX-I; Day 7, vs. baseline): 78%
urinary CTX-I levels reduced by (CTX-I; Day 28, vs. baseline): 86%
Macroscopic score, Calculated ([1]; Femur condyle): 9.07 ± 4.78
Macroscopic score, Subjective ([1]; Femur condyle): 1.13 ± 0.32
Macroscopic score, Calculated ([1]; Tibia plateau): 23.88 ± 3.17
Macroscopic score, Subjective ([1]; Tibia plateau): 2.33 ± 0.21
Total lesion area, reduction vs vehicle (printed in Fig. 7) ([2]; dog, left tibia plateau): 26%
proportion of tibial cartilage affected by lesions (lesioned area) ([2]; dog, left tibia plateau, vehicle 21.0% ± 2.6): 15.5%
area of severe lesions, lower than vehicle group ([2]; dog, p = 0.08): 80%
dogs with severe tibial cartilage lesions ([2]; dog, vehicle 6/15): 3/15
area of severe tibial cartilage lesions ([2]; three dogs with severe lesions, vehicle 10 ± 4%): 2 ± 1%

Reference: PMC5845353, “The selective cathepsin K inhibitor MIV-711 attenuates joint pathology in experimental animal models of osteoarthritis” (Journal of Translational Medicine, 2018)
